Assay results taken from patent US6509319B1, “EDTA and other chelators with or without antifungal antimicrobial agents for the prevention and treatment of fungal infections” (Board of Regents, The University of Texas System, priority 1997, dated 2003).

Columns and labels:
[1] = cited from earlier work
[2] = test system: Candida krusei; details: 0.35 mg EDTA per mL, in vitro
Description: (§1) These figures are discussed elsewhere in the Detailed Description section. A spectrophotometer was used at a frequency of 660 nm to measure the absorbency of the solution.
(§2) For molds, all inocula were started at 1×10^4 conidia/mL. For yeast and bacteria, all inocula were started at 1×10^6 cfu/mL. The medium used was Mueller-Hinton.
(§3) The concentration of chelator in these studies was 0.35 mg EDTA per mL water.

[3] = test system: Fusarium oxysporum; details: 0.35 mg EDTA per mL, Mueller-Hinton, in vitro
Description: as §1, §2, §3

[4] = test system: Aspergillus terreus; details: 0.35 mg EDTA per mL, Mueller-Hinton, in vitro
Description: as §1, §2, §3

[5] = test system: Aspergillus flavus; details: 0.35 mg EDTA per mL, in vitro
Description: as §1, §2, §3

Structure (SMILES) | solubility in aqueous solution [1] | inhibitory effect on growth ([2]; Mueller-Hinton) | time after contact at which the inhibitory effect is noticeable [2] | inhibitory effect on growth [3] | inhibitory effect on growth [4] | inhibitory effect on growth relative to the control population ([5]; Mueller-Hinton) | time after application from which the inhibitory effect is most clearly noticeable [5] [h]
C[C@@H]1[C@H](O)[C@@H](C)/C=C/C=C/C=C/C=C/C=C/C=C/C=C/[C@H](O[C@@H]2O[C@H](C)[C@@H](O)[C@H](N)[C@@H]2O)C[C@@H]2O[C@](O)(C[C@@H](O)C[C@@H](O)[C@H](O)CC[C@@H](O)C[C@@H](O)CC(=O)O[C@H]1C)C[C@H](O)[C@H]2C(=O)O [Amphotericin B] | not soluble | – | – | – | – | – | –
O=C(O)CN(CCN(CC(=O)O)CC(=O)O)CC(=O)O [EDTA, Ethylenediamine-N,N,N′,N′,-tetraacetic acid] | – | inhibitory effect | only a few hours | inhibitory effect | inhibitory effect | inhibitory effect | 12
